Experimental data taken from the CheMixHub viscosity set.
± gives the uncertainty stated by the source.

Assay: xn = mol fraction of the nth substance listed

CCc1ccccc1 + COCCO
viscosity [mPa·s], 101 kPa
Conditions	298.15 K	308.15 K
x2 = 0.0558	0.65 ± 0.011	0.548 ± 0.01
x2 = 0.1525	0.679 ± 0.012	0.577 ± 0.01
x2 = 0.2511	0.717 ± 0.012	0.612 ± 0.011
x2 = 0.3504	0.766 ± 0.013	0.655 ± 0.011
x2 = 0.4525	0.831 ± 0.014	0.708 ± 0.012
x2 = 0.5021	0.869 ± 0.015	0.738 ± 0.013
x2 = 0.5522	0.911 ± 0.015	0.771 ± 0.013
x2 = 0.6499	1.008 ± 0.017	0.844 ± 0.014
x2 = 0.75	1.131 ± 0.018	0.933 ± 0.016
x2 = 0.853	1.291 ± 0.021	1.043 ± 0.017
x2 = 0.9546	1.488 ± 0.024	1.175 ± 0.02

Clc1ccccc1 + COCCO
303.15 K, 101.33 kPa
Conditions	viscosity [mPa·s]
x2 = 0.1075	0.749 ± 0.01
x2 = 0.2093	0.782 ± 0.01
x2 = 0.3086	0.836 ± 0.011
x2 = 0.4113	0.894 ± 0.012
x2 = 0.4993	0.952 ± 0.012
x2 = 0.6006	1.028 ± 0.013
x2 = 0.7032	1.113 ± 0.014
x2 = 0.8023	1.201 ± 0.015
x2 = 0.9234	1.309 ± 0.016

CCCCC(CC)CN (stereo unspecified) + COCCOCCOC
viscosity [mPa·s], 101.33 kPa
Conditions	x2 = 0.0967	x2 = 0.194	x2 = 0.292	x2 = 0.391	x2 = 0.491	x2 = 0.591	x2 = 0.692	x2 = 0.794	x2 = 0.897
303.2 K	0.98 ± 0.05	0.97 ± 0.06	0.96 ± 0.05	0.95 ± 0.05	0.94 ± 0.05	0.93 ± 0.05	0.92 ± 0.05	0.93 ± 0.05	0.94 ± 0.05
313.2 K	0.86 ± 0.04	0.85 ± 0.04	0.84 ± 0.04	0.82 ± 0.04	0.81 ± 0.04	0.8 ± 0.04	0.79 ± 0.04	0.8 ± 0.04	0.81 ± 0.04

CCCCC(CC)CN (stereo unspecified) + COCCOCCOCCOC
viscosity [mPa·s], 101.33 kPa
Conditions	x2 = 0.0746	x2 = 0.153	x2 = 0.237	x2 = 0.326	x2 = 0.42	x2 = 0.521	x2 = 0.629	x2 = 0.744	x2 = 0.867
303.2 K	1.02 ± 0.05	1.05 ± 0.07	1.13 ± 0.06	1.19 ± 0.06	1.25 ± 0.06	1.32 ± 0.07	1.39 ± 0.08	1.54 ± 0.08	1.64 ± 0.08
313.2 K	0.88 ± 0.04	0.9 ± 0.05	0.97 ± 0.05	1.01 ± 0.05	1.06 ± 0.05	1.11 ± 0.06	1.16 ± 0.06	1.31 ± 0.07	1.39 ± 0.07

CCCCC(CC)CN (stereo unspecified) + COCCOCCOCCOCCOC
viscosity [mPa·s], 101.33 kPa
Conditions	x2 = 0.0607	x2 = 0.127	x2 = 0.199	x2 = 0.279	x2 = 0.368	x2 = 0.466	x2 = 0.576	x2 = 0.699	x2 = 0.84
303.2 K	1.04 ± 0.06	1.14 ± 0.1	1.26 ± 0.06	1.39 ± 0.09	1.58 ± 0.09	1.74 ± 0.1	1.99 ± 0.11	2.24 ± 0.13	2.55 ± 0.14
313.2 K	0.89 ± 0.05	0.97 ± 0.05	1.07 ± 0.06	1.16 ± 0.06	1.3 ± 0.07	1.43 ± 0.08	1.59 ± 0.09	1.87 ± 0.11	2.09 ± 0.12

COCOCOCOCOC + COCOCOC
100 kPa
Conditions	viscosity [mPa·s]
298.15 K, x2 = 0.65	1.125 ± 0.053
303.15 K, x2 = 0.12	1.575 ± 0.055

COCOCOCOCOC + COCOCOCOC
Conditions	viscosity [mPa·s]
293.15 K, 100 kPa, x2 = 0.12	1.895 ± 0.054

Clc1ccccc1 + COc1ccccc1
Conditions	viscosity [mPa·s]
293.15 K, 101.33 kPa, x2 = 0.0976	0.8705 ± 0.046
293.15 K, 101.33 kPa, x2 = 0.1922	0.8967 ± 0.047
293.15 K, 101.33 kPa, x2 = 0.2893	0.9253 ± 0.049
293.15 K, 101.33 kPa, x2 = 0.3873	0.9512 ± 0.05
293.15 K, 101.33 kPa, x2 = 0.493	0.9898 ± 0.052
293.15 K, 101.33 kPa, x2 = 0.5987	0.967 ± 0.051
293.15 K, 101.33 kPa, x2 = 0.7059	1.007 ± 0.053
293.15 K, 101.33 kPa, x2 = 0.7916	1.072 ± 0.056
293.15 K, 101.33 kPa, x2 = 0.905	1.107 ± 0.058
298.15 K, 101 kPa, x2 = 0.0994	0.7921 ± 0.021
298.15 K, 101 kPa, x2 = 0.2	0.8143 ± 0.021
298.15 K, 101 kPa, x2 = 0.2957	0.8336 ± 0.022
298.15 K, 101 kPa, x2 = 0.3982	0.8576 ± 0.022
298.15 K, 101 kPa, x2 = 0.5028	0.88 ± 0.023
298.15 K, 101 kPa, x2 = 0.6002	0.9024 ± 0.023
298.15 K, 101 kPa, x2 = 0.7006	0.9275 ± 0.024
298.15 K, 101 kPa, x2 = 0.7995	0.9474 ± 0.025
298.15 K, 101 kPa, x2 = 0.8997	0.9779 ± 0.025
298.15 K, 101.33 kPa, x2 = 0.0976	0.8217 ± 0.043
298.15 K, 101.33 kPa, x2 = 0.1922	0.8474 ± 0.044
298.15 K, 101.33 kPa, x2 = 0.2893	0.8642 ± 0.045
298.15 K, 101.33 kPa, x2 = 0.3873	0.8824 ± 0.046
298.15 K, 101.33 kPa, x2 = 0.493	0.9356 ± 0.049
298.15 K, 101.33 kPa, x2 = 0.5987	0.9051 ± 0.048
298.15 K, 101.33 kPa, x2 = 0.7059	0.9242 ± 0.049
298.15 K, 101.33 kPa, x2 = 0.7916	0.9965 ± 0.052
298.15 K, 101.33 kPa, x2 = 0.905	1.037 ± 0.054
303.15 K, 101 kPa, x2 = 0.0864	0.7392 ± 0.0072
303.15 K, 101 kPa, x2 = 0.0994	0.7495 ± 0.019
303.15 K, 101 kPa, x2 = 0.1933	0.7667 ± 0.0074
303.15 K, 101 kPa, x2 = 0.2	0.7657 ± 0.02
303.15 K, 101 kPa, x2 = 0.2875	0.79 ± 0.0076
303.15 K, 101 kPa, x2 = 0.2957	0.785 ± 0.02
303.15 K, 101 kPa, x2 = 0.3805	0.8112 ± 0.0078
303.15 K, 101 kPa, x2 = 0.3982	0.8026 ± 0.021
303.15 K, 101 kPa, x2 = 0.4904	0.8348 ± 0.008
303.15 K, 101 kPa, x2 = 0.5028	0.8232 ± 0.021
303.15 K, 101 kPa, x2 = 0.5826	0.8538 ± 0.0082
303.15 K, 101 kPa, x2 = 0.6002	0.8438 ± 0.022
303.15 K, 101 kPa, x2 = 0.6914	0.8755 ± 0.0084
303.15 K, 101 kPa, x2 = 0.7006	0.8635 ± 0.022
303.15 K, 101 kPa, x2 = 0.779	0.8922 ± 0.0085
303.15 K, 101 kPa, x2 = 0.7995	0.8808 ± 0.023
303.15 K, 101 kPa, x2 = 0.8905	0.9132 ± 0.0087
303.15 K, 101 kPa, x2 = 0.8997	0.9091 ± 0.024
308.15 K, 101 kPa, x2 = 0.0994	0.7047 ± 0.018
308.15 K, 101 kPa, x2 = 0.2	0.7212 ± 0.019
308.15 K, 101 kPa, x2 = 0.2957	0.7354 ± 0.019
308.15 K, 101 kPa, x2 = 0.3982	0.7535 ± 0.019
308.15 K, 101 kPa, x2 = 0.5028	0.7693 ± 0.02
308.15 K, 101 kPa, x2 = 0.6002	0.7866 ± 0.02
308.15 K, 101 kPa, x2 = 0.7006	0.8038 ± 0.021
308.15 K, 101 kPa, x2 = 0.7995	0.8201 ± 0.021
308.15 K, 101 kPa, x2 = 0.8997	0.8444 ± 0.022
313.15 K, 101 kPa, x2 = 0.0994	0.6642 ± 0.017
313.15 K, 101 kPa, x2 = 0.2	0.6768 ± 0.018
313.15 K, 101 kPa, x2 = 0.2957	0.6921 ± 0.018
313.15 K, 101 kPa, x2 = 0.3982	0.7064 ± 0.018
313.15 K, 101 kPa, x2 = 0.5028	0.7227 ± 0.019
313.15 K, 101 kPa, x2 = 0.6002	0.7366 ± 0.019
313.15 K, 101 kPa, x2 = 0.7006	0.7511 ± 0.019
313.15 K, 101 kPa, x2 = 0.7995	0.7649 ± 0.02
313.15 K, 101 kPa, x2 = 0.8997	0.7855 ± 0.02
